Assays:
[1] = target: T1, 12-lipoxygenase (Rattus norvegicus, UniProt F1LQ70); test: 12-Lipoxygenase Inhibition Activity (In Vitro), 12-HETE production by rat platelet enzyme solution; assay type: biochemical; details: [14C]-arachidonic acid, 5 min pre-incubation at 37° C., 5 min reaction, read-out: Inhibition rate (%) of 12-HETE production; for inhibition at 1 µM: 10^-6 M; for inhibition at 0.1 µM: 10^-7 M
T1 construct: the frozen platelet rich plasma was allowed to melt and then subjected to ultrasonic treatment in ice water so that an enzyme solution was obtained; from tissue; host or cells: rat platelets (washed, frozen, sonicated; crude enzyme solution)
T1 sequence (F1LQ70 1-663): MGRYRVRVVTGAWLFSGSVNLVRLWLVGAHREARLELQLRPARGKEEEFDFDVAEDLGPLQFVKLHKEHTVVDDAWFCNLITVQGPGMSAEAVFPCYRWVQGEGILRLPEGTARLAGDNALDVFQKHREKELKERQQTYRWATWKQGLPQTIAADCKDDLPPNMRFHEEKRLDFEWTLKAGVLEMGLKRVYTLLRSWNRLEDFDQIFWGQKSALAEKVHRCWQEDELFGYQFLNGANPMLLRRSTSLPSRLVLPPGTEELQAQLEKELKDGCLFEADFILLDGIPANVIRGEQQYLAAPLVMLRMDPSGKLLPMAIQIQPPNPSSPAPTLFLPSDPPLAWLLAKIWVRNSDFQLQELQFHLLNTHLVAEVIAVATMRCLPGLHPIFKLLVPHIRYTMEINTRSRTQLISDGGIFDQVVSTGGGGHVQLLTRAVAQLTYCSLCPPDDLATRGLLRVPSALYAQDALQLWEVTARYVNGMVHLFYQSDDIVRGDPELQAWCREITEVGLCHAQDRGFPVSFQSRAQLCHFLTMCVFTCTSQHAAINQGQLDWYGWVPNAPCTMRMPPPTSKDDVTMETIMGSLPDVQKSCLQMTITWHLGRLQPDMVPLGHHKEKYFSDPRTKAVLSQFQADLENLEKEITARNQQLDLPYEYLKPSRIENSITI
Protocol: The 12-lipoxygenase inhibition activity of each test compound according to the present invention was measured in the following manner.
Firstly, blood was collected from the heart of a rat (while using sodium citrate as an anticoagulant), and platelet rich plasma was prepared by a method known per se in the art. The platelet rich plasma was washed twice with a isotonic buffer (A) [134 mM of NaCl, 5 mM of D-glucose, 1 mM of EDTA, 1 mM of EGTA, 15 mM of tris-HCl (pH 7.4)] and was then frozen and stored at -80° C. Prior to a pharmacological test, the frozen platelet rich plasma was allowed to melt and then subjected to ultrasonic treatment in ice water so that an enzyme solution was obtained. To the isotonic buffer (A), 1 mM of GSH, the test compound (adjusted to have the final concentrations of 1 μM and 0.1 μM) and the enzyme solution (300-500 μg of protein) were added. Subsequent to pre-incubation at 37° C. for 5 minutes, [^14 C]-arachidonic acid (0.05 μCi) (final concentration: […]) was added to react it for 5 minutes. After the reaction was terminated, the reaction mixture was spread over a thin layer plate of silica gel to conduct autoradiography. 12-HETE was identified and a reduction in its production was determined as an index for its 12-lipoxygenase inhibition activity.

[2] = system: 12-Lipoxygenase in platelets; test: 12-Lipoxygenase Inhibition Activity in Platelets (Extro Vivo); design: species or system SD rat; details: 1.0 mg/kg i.v., blood 10 min after administration; base preparation group = 100%
Protocol: Under anesthesia with pentobarbital, an SD rat (8 week-old, male) was intravenously administered with a polyethylene glycol solution containing 1.0 mg/kg of a test compound. Ten minutes after the administration, blood was collected from the abdominal vena cava, and the inhibitory activity was measured as in the above test (1).
Setting at 100% the amount of 12-HETE of the group in which a base preparation was administered instead of the drugs, the results, namely, the amount of 12-HETE obtained when each test drug was administered was indicated in terms of %.

[3] = system: 12-lipoxygenase; details: conventionally known compound; cited from earlier work

| inhibition at 1 µM [1] | inhibition at 0.1 µM [1] | SMILES | inhibitory effect on amount of 12-HETE [2] | 12-lipoxygenase inhibitory action [3] |
| --- | --- | --- | --- | --- |
|  | 65.8% | CCOC(=O)Oc1ccc(C=C(C#N)C(=O)OCCc2cccs2)cc1OC(=O)OCC [Compound 18, 2-(2-thienyl)-ethyl 2-cyano-3-(3,4-diethoxycarbonyloxyphenyl)-2-propenoate] |  |  |
| 82.9% | 56.6% | N#CC(=Cc1ccc2oc(=O)oc2c1)C(=O)OCCc1ccccc1 [Compound 35, phenethyl 2-cyano-3-(3,4-cyclic dioxolonylphenyl)-2-propenoate] |  |  |
|  | 91.5% | N#CC(=Cc1ccc2oc(=O)oc2c1)C(=O)OCCc1cccs1 [Compound 34, 2-(2-thienyl)-ethyl 2-cyano-3-(3,4-cyclic dioxolonylphenyl)-2-propenoate] |  |  |
| 64.6% | 34.6% | CCOC(=O)Oc1ccc(C=C(C#N)C(=O)OCc2ccsc2)cc1OC(=O)OCC [Compound 14, 3-thienylmethyl 2-cyano-3-(3,4-diethoxycarbonyloxyphenyl)-2-propenoate] |  |  |
|  | 75.6% | N#CC(=Cc1ccc2oc(=O)oc2c1)C(=O)Oc1ccccc1 [Compound 36, phenyl 2-cyano-3-(3,4-cyclic dioxolonylphenyl)-2-propenoate] |  |  |
| 50.8% | 4.6% | COC(=O)Oc1ccc(C=C(C#N)C(=O)OCCc2cccs2)cc1OC(=O)OC [Compound 19, 2-(2-thienyl)-ethyl 2-cyano-3-(3,4-dimethoxycarbonyloxyphenyl)-2-propenoate] |  |  |
| 40.8% | < 0% | CCOC(=O)Oc1ccc(C=C(C#N)C(=O)OCCCc2cccnc2)cc1OC(=O)OCC [Compound 13, 3-(3-pyridyl)-propyl 2-cyano-3-(3,4-diethoxycarbonyloxyphenyl)-2-propenoate] |  |  |
| 75.9% | 59.3% | CCOC(=O)Oc1cc(C=C(C#N)C(=O)OCCc2ccccc2)ccc1O [Compound 17, phenethyl 2-cyano-3-(3-ethoxycarbonyloxy-4-hydroxyphenyl)-2-propenoate] | 18% |  |
| 84.5% | 64.5% | CCOC(=O)Oc1cc(C=C(C#N)C(=O)OCCc2cccs2)ccc1O [Compound 23, 2-(2-thienyl)-ethyl 2-cyano-3-(3-ethoxycarbonyloxy-4-hydroxyphenyl)-2-propenoate] |  |  |
| 41.6% | < 0% | N#CC(=Cc1ccc(OC(=O)OCc2ccccc2)c(OC(=O)OCc2ccccc2)c1)C(=O)OCCc1cccs1 [Compound 21, 2-(2-thienyl)-ethyl 2-cyano-3-(3,4-dibenzyloxycarbonyloxyphenyl)-2-propenoate] |  |  |
| 59.2% | 25.1% | CCOC(=O)Oc1cc(C=C(C#N)C(=O)OCCc2cccs2)cc(OC(=O)OCC)c1OC(=O)OCC [Compound 29, 2-(2-thienyl)-ethyl 2-cyano-3-(3,4,5-triethoxycarbonyloxyphenyl)-2-propenoate] |  |  |

Continued, compound first:

| SMILES | inhibition at 1 µM [1] | inhibition at 0.1 µM [1] | inhibitory effect on amount of 12-HETE [2] | 12-lipoxygenase inhibitory action [3] |
| --- | --- | --- | --- | --- |
| CCOC(=O)Oc1ccc(C=C(C#N)C(=O)OCCCc2ccccn2)cc1OC(=O)OCC [Compound 12, 3-(2-pyridyl)-propyl 2-cyano-3-(3,4-diethoxycarbonyloxyphenyl)-2-propenoate] | 68.4% | 16.3% |  |  |
| CCOC(=O)Oc1ccc(C=C(C#N)C(=O)OCc2ccco2)cc1OC(=O)OCC [Compound 11, 2-furylmethyl 2-cyano-3-(3,4-diethoxycarbonyloxyphenyl)-2-propenoate] | 53.8% | 23.5% |  |  |
| CCCCCCCOC(=O)Oc1ccc(C=C(C#N)C(=O)OCCc2cccs2)cc1OC(=O)OCCCCCCC [Compound 22, 2-(2-thienyl)-ethyl 2-cyano-3-(3,4-diheptoxycarbonyloxyphenyl)-2-propenoate] | 27.6% | 14% |  |  |
| CC(C)COC(=O)Oc1ccc(C=C(C#N)C(=O)OCCc2cccs2)cc1OC(=O)OCC(C)C [Compound 20, 2-(2-thienyl)-ethyl 2-cyano-3-(3,4-diisobutoxycarbonyloxyphenyl)-2-propenoate] | 63.4% | 41.2% |  |  |
| CCOC(=O)Oc1ccc(C=C(C#N)C(=O)OC(C)Cc2ccccc2)cc1OC(=O)OCC (centres unmarked) [Compound 9, 1-methyl-2-phenylethyl 2-cyano-3-(3,4-diethoxycarbonyloxyphenyl)-2-propenoate] | 71.8% | 4.2% |  |  |
| CCOC(=O)Oc1ccc(C=C(C#N)C(=O)OCC)cc1OC(=O)OCC [Compound 6, ethyl 2-cyano-3-(3,4-diethoxycarbonyloxyphenyl)-2-propenoate] |  | 60.3% |  |  |
| CCOC(=O)Oc1ccc(C=C(C#N)C(=O)OCCc2ccsc2)cc1OC(=O)OCC [Compound 10, 2-(3-thienyl)-ethyl 2-cyano-3-(3,4-diethoxycarbonyloxyphenyl)-2-propenoate] | 79.3% | 38.7% |  |  |
| CCC[C@@H](OC(=O)C(C#N)=Cc1ccc(OC(=O)OCC)c(OC(=O)OCC)c1)c1ccccc1 [Compound 8, (R)-(+)-1-phenylbutyl 2-cyano-3-(3,4-diethoxycarbonyloxyphenyl)-2-propenoate] | 65.1% | 9.4% |  |  |
| CCC[C@H](OC(=O)C(C#N)=Cc1ccc(OC(=O)OCC)c(OC(=O)OCC)c1)c1ccccc1 [Compound 7, (S)-(-)-1-phenylbutyl 2-cyano-3-(3,4-diethoxycarbonyloxyphenyl)-2-propenoate] | 75.6% | 40.8% |  |  |
| O=c1cc(-c2ccccc2)oc2cc(O)c(O)c(O)c12 [baicalein] |  |  |  | 12-lipoxygenase inhibitory action |
| CCOC(=O)Oc1ccc(C=C(C#N)C(=O)OCCc2ccccc2)cc1OC(=O)OCC [Compound 1, phenethyl 2-cyano-3-(3,4-diethoxycarbonyloxyphenyl)-2-propenoate] | 85.4% | 52.9% | 30% |  |
